{"source": "patent EP0554284B1", "about": "“PEPTIDE-BASED INHIBITORS OF HIV REPLICATION” (priority 1990, dated 1996)", "key": {"[1]": {"system": "tat", "details": "literature, Green et al; cited from earlier work"}, "[2]": {"system": "HIV (strain NL4-3)", "assay_type": "cell-based", "description": "Controls used water in place of peptide."}, "[3]": {"system": "truncated functional form of TAR RNA", "assay": "RNA gel mobility shift assay, TAR binding", "set-up": "species or system HIV", "details": "judged relative to tat(1-86) and the oligopeptide representing the tat basic domain; result in words", "description": "This assay generally involves the incubation of a selected oligopeptide with gel-purified, radio-labelled TAR RNA, or tat-binding fragment of TAR RNA, that has been produced either by direct synthesis or through transcription of a corresponding DNA template. Samples are loaded onto non-denaturing polyacrylamide gel and subjected to electrophoresis, and then migration of labelled RNA through the gel is visualized on gel-exposed, X-ray film. Oligopeptides which bind TAR are identified in this assay by their characteristic, retarded migration on the gel, relative to TAR RNA to which no oligopeptide has bound. In this mobility shift assay, oligopeptides having an \"enhanced\" affinity for binding TAR RNA will resolve on the gel as bands which, in addition to displaying the retarded migration pattern characteristic of TAR-binding oligopeptides, will also appear with greater intensity and/or size than a band containing TAR RNA bound to tat (1-86).\n(§1) TAR-binding affinity of the oligopeptides relative to HIV tat(1-86) and relative to tat fragments representing the tat basic domain, was evaluated by RNA gel mobility shift assay using as ligand a truncated functional form of TAR RNA having the sequence shown below.\nSynthesis of the TAR fragment and its variant analogue was accomplished as described by Roy et al. in Genes and Development, 1990, 4:1365. […]"}, "[4]": {"system": "variant of TAR which does not bind tat", "assay": "RNA gel mobility shift assay, binding to non-functional TAR variant (specificity)", "set-up": "species or system HIV", "details": "relative to binding to the non-functional TAR variant; result in words", "description": "as §1\nSynthesis of the TAR fragment and its variant analogue was accomplished as described by Roy et al. in Genes and Development, 1990, 4:1365. The TAR-binding assay was also performed in the manner reported by Roy et al., supra, which is incorporated herein by reference."}, "[5]": {"system": "yeast tRNA", "assay": "TAR binding compared with yeast tRNA binding (specificity)", "details": "result in words"}}}
{"molecule": "Arg-Lys-Lys-Arg-Arg-Gln-Arg-Arg-Arg", "values": [{"measurement": "tat antagonist activity", "setting": "[1]", "value": "Weak tat antagonist activity"}]}
{"molecule": "CC(=O)N[C@H](CCCNC(=N)N)C(=O)N[C@H](CCCCN)C(=O)N[C@H](CCCCN)C(=O)N[C@H](CCCNC(=N)N)C(=O)N[C@H](CCCNC(=N)N)C(=O)N[C@H](CCC(N)=O)C(=O)N[C@H](CCCNC(=N)N)C(=O)N[C@H](CCCNC(=N)N)C(=O)N[C@H](CCCNC(=N)N)C(N)=O", "note": "[peptide 4G]", "values": [{"measurement": "effects on HIV inhibition", "setting": "[2]; 5µM pretreatment of HuT78 cells, 7 or 14 days, result in words", "value": "positive effects on HIV inhibition"}]}
{"molecule": "CC(=O)N[C@H](CCCNC(=N)N)C(=O)N[C@H](CCCNC(=N)N)C(=O)N[C@H](CCCNC(=N)N)C(=O)N[C@H](CCCNC(=N)N)C(=O)N[C@H](CCCNC(=N)N)C(=O)N[C@H](CCCNC(=N)N)C(=O)N[C@H](CCCNC(=N)N)C(=O)N[C@H](CCCNC(=N)N)C(=O)N[C@H](CCCNC(=N)N)C(N)=O", "note": "[peptide 4C, acetyl-[D-Arg]9-NH2]", "values": [{"measurement": "TAR-binding affinity", "setting": "[3]", "value": "comparable to the basic domain of wild type tat"}, {"measurement": "specificity for binding to the functional TAR fragment", "setting": "[4]", "value": "comparable to the wild type basic domain"}, {"measurement": "specificity of binding", "setting": "[5]", "value": "confirmed"}, {"measurement": "inhibition of viral replication, as measured by p24 assay", "setting": "[2]; HuT78 cells pretreated with 5µM peptide for 7 or 14 days, 10µM after infection, p24 at four and seven days after infection", "value": "≥ 95", "unit": "%"}, {"measurement": "formation of syncytia", "setting": "[2]; visual inspection of infected HuT78 cells, same treatment as p24 assay", "value": "completely inhibited"}]}
